Results as given in paper PMC10931676 (International Journal of Molecular Sciences, 2024).
Where two headings read alike, the source gives them in different places.

Experiment: Permeability and efflux ratio in Caco-2 cells
Type: in vitro ADME
Conditions: human; for recovery at 120 min, 10 µM: Caco-2, Caco-2, 10 µM
Method: Human colon carcinoma (Caco-2) cells, which were obtained from Military Medical Research Institute, were maintained in Dulbecco’s modified Eagle’s medium. Caco-2 cells were seeded onto […] (PET) in 96-well Falcon insert systems at 2 × 10^5 cells/cm^2 for 21–28 days for confluent cell monolayer formation. […] Test compounds were diluted with the transport buffer (HBSS without BSA) from a 10 mM stock solution to a concentration of 10 µM and applied to the apical or basolateral side of the cell monolayer. Permeation of the test compounds in the direction from A to B or from B to A was determined in duplicate over a 120-min incubation at 37 °C and 5% CO2 with a relative humidity of 95%. In addition, the efflux ratio of each compound was also determined. Test and reference compounds were quantified by LC-MS/MS analysis based on the peak area ratio of analyte/IS. The apparent permeability coefficient Papp (cm/s) was calculated using the following equation:Papp = (dCr/dt) × Vr/(A × C0) where dCr/dt is the cumulative concentration of the compound in the receiver chamber as a function of time (S); Vr is the solution volume in the receiver chamber (0.1 mL on the apical side, 0.25 mL on the basolateral side); A is the surface area for the transport, i.e., 0.0804 cm^2 for the area of the monolayer; C0 is the initial concentration in the donor chamber. […] Cd and Cr are the final concentrations of transport compound in donor and receiver chambers, respectively. Cc is the compound concentration in the cell lysate solution. Vc is the volume of insert well (0.1 mL in this assay).

[1] = Caco-2, 10 µM, 120-min incubation, 37 °C

| Structure (SMILES) | recovery at 120 min, 10 µM (read-out: Mean Recovery % B to A) [%] | Papp A→B at 120 min, 10 µM [1] [×10⁻⁶ cm/s] | Papp B→A at 120 min, 10 µM [1] [×10⁻⁶ cm/s] | recovery at 120 min, 10 µM (read-out: Mean Recovery % A to B) [%] |
| --- | --- | --- | --- | --- |
| C[C@H]1O[C@@H](O[C@H]2[C@@H](O)C[C@H](O[C@H]3[C@@H](O)C[C@H](O[C@H]4CC[C@@]5(C)[C@H](CC[C@@H]6[C@@H]5C[C@@H](O)[C@]5(C)[C@@H](C7=CC(=O)OC7)CC[C@]65O)C4)O[C@@H]3C)O[C@@H]2C)C[C@H](O)[C@@H]1O [Digoxin] | 95.3 | 0.65 | 14.6 |  |
| CC(C)NCC(O)COc1cccc2ccccc12 (centres unmarked) [Propranolol] |  | 29.4 |  | 81 |
